Source: US20150093333A1, “COMPOSITIONS, METHODS AND USES FOR PEPTIDES IN DIAGNOSIS, PROGRESSION AND TREATMENT OF CANCERS” (THE REGENTS OF THE UNIVERSITY OF COLORADO, body corporate, priority 2003, published 2015)
Like-named read-outs stand apart in the source and are kept apart here. Where no end group is shown, it is not given here. [ ]: non-standard residue; d: D form. Lys(N3) = [N-]=[N+]=NCCCC[C@H](N)C(=O)O; Pra = C#CC[C@H](N)C(=O)O

What was measured:
lipid vesicles [1] = assay: 1H NMR of C2B derived peptides treated with lipid vesicles; type: binding
Procedure: To verify that the origin of the differential peptide interaction towards lipid vesicles is due to the innate property of the peptide itself and not due to the fluorophores, ^1H NMR spectrometry investigations to probe the interaction of C2B derived peptides were carried out.
This observation is in contrast to NMR profiles of peptides that are known to interact with liposomes.

[2] = tested on: 8:2 POPC/POPS lipid vesicles; assay: Fluorescence enhancement assay of C2B derived peptides with lipid vesicles; type: binding; conditions: for lipid vesicle binding and curvature sensing (fluorescence enhancement): 8:2 POPC/POPS vesicles 0.03 to 0.08 μm
Procedure: In certain examples, lipid vesicles were prepared using extrusion through membranes with pore sizes of 30, 80, and 400 nm to cover a wide range of curvatures. […] A lipid film was deposited on a glass vial by blowing down to dryness with Ar or N2 a CHCl3 solution of the lipids (Avanti Polar Lipids), followed by the removal of residual organic solvent under vacuum for several hours. The lipid film was hydrated overnight at 4° C. in PBS pH 7.4, the lipid suspension of multilamellar vesicles were subjected to five freeze-thaw cycles (except for extrusion through 400 nm pores), and followed by extrusion through polycarbonate membranes with pore diameters of 30, 80, and 400 nm to produce the desired SUVs using […]. […] An increase in the observed fluorescence intensity and a blue shifted λem maximum are directly correlated to a change in the environment surrounding the peptide, e.g., from the polar aqueous solvent to the hydrophobic lipid vesicle, and indicate a peptide-lipid interaction. The peptides were prepared by microwave-assisted SPPS, purified by reversed phase HPLC, and characterized by MALDI-TOF-MS. […] An increase in the observed fluorescence intensity and a blue shifted λem maximum are directly correlated to a change in the environment surrounding the peptide, i.e., from the polar aqueous solvent to the hydrophobic lipid vesicle, indicating a peptide-lipid interaction. Lipid vesicles composed of 8:2 palmitoyl oleoyl phosphatidylcholine (POPC) and palmitoyl oleoyl phosphatidylserine (POPS) were used to represent the approximate phospholipid composition of cellular membranes. These vesicles were prepared by extruding a suspension of multilamellar lipid vesicles in PBS buffer (pH=7.4) through polycarbonate membranes. The diameters of these lipid vesicles were measured using dynamic light scattering (DLS) that was calibrated with 50 nm polystyrene beads. […] FIG. 2 illustrates exemplary fluorescence assays performed to assess the interaction of labeled-peptides on synthetic and biologically relevant lipid vesicles. […]

lipid vesicles [3] = conditions: cited from earlier work

Row | Molecule | interaction with liposomes (1H NMR peak intensity) (lipid vesicles [1]; vesicles with d=55±6 nm) | interaction with liposomes (1H NMR peak intensity) (lipid vesicles [1]; 0.03 μm vesicles) | lipid vesicle binding and curvature sensing (fluorescence enhancement) [2] | also measured
1 | C2BL3C 1: 12-residue cyclic peptide from Syt1 C2B loop 3, Click cyclization of GGPraDYDKIGKNDANle(ε-N3) (GG[Pra]DYDKIGKNDA[Lys(N3)]-NH2; triazole (positions not given here); numbers in words are those of the source; also: Pra after Gly2 and Nle(ε-N3) after Ala12 joined by click triazole (head-to-tail side-chain cyclisation)) | also interacts with liposomes | – | – | –
2 | Ac-GGDYDKIGKNDA-NH2 [C2B-Ac 3, linear 12-residue peptide derived from amino acids 363-372 of Syt1] | weaker binding | does not interact with the liposomes | – | –
3 | C2B-Cou 5: linear GGDYDKIGKNDA peptide N-terminally labeled with 7-hydroxycoumarin-3-carboxylic acid ({7‑hydroxycoumarin‑3‑carbonyl}-GGDYDKIGKNDA) | – | are interacting with the lipid vesicles | significant binding and curvature sensing property | –
4 | C2B-Trp 4: linear GGDYDKIGKNDA peptide with N-terminal tryptophan (N-terminal tryptophan) | – | are interacting with the lipid vesicles | significant binding and curvature sensing property | –
5 | Syt1: Synaptotagmin-I, curvature-sensing protein used as positive control (protein, UniProt P21707 1-421, looked up) Synaptotagmin-1: MVSASHPEALAAPVTTVATLVPHNATEPASPGEGKEDAFSKLKQKFMNELHKIPLPPWALIAIAIVAVLLVVTCCFCVCKKCLFKKKNKKKGKEKGGKNAINMKDVKDLGKTMKDQALKDDDAETGLTDGEEKEEPKEEEKLGKLQYSLDYDFQNNQLLVGIIQAAELPALDMGGTSDPYVKVFLLPDKKKKFETKVHRKTLNPVFNEQFTFKVPYSELGGKTLVMAVYDFDRFSKHDIIGEFKVPMNTVDFGHVTEEWRDLQSAEKEEQEKLGDICFSLRYVPTAGKLTVVILEAKNLKKMDVGGLSDPYVKIHLMQNGKRLKKKKTTIKKNTLNPYYNESFSFEVPFEQIQKVQVVVTVLDYDKIGKNDAIGKVFVGYNSTGAELRHWSDMLANPRRPIAQWHTLQVEEEVDAMLAVKK | – | – | – | fluorescence enhancement ([2]; with 30 nm vesicles, FIG. 2a): 1.28±0.02 RFU; Kd (lipid vesicles [3]; 105 nm vesicles): 151 µM; Kd (lipid vesicles [3]; 252 nm vesicles): 263 ± 180 µM
